Values quoted from earlier work in patent publication US7776886B2, “Cyclopropyl piperidine glycine transporter inhibitors” (Merck Sharp & Dohme Corp., priority 2004, dated 2010).

How the values were obtained:
[1] = schizophrenia patients poorly responsive to antipsychotic drugs
[2] = mice
NMDA receptor = conditions: rat

Structure (SMILES)	effect on positive, negative and cognitive symptoms [1]	pre-pulse inhibition (measure of sensory gating) [2]	NMDA receptor activity (NMDA receptor)	NMDA receptor-dependent long-term potentiation (NMDA receptor)
CNCC(=O)O [sarcosine]	beneficial effect			
CN(CCC(Oc1ccc(-c2ccccc2)cc1)c1ccc(F)cc1)CC(=O)O (stereo not shown) [NFPS, (N-[3-(4′-fluorophenyl)-3-(4′-phenylphenoxy)propyl])sarcosine]		enhance pre-pulse inhibition	potentiates	potentiates
